Values quoted from earlier work in patent publication US20080004223A1, “DERMATOLOGICAL USES OF THE TRIPEPTIDE MELANOCYTE STIMULATING INHIBITORY FACTOR (MIF)” (priority 2006, published 2008).
Read-outs that look alike come from different tables or passages of the source. Residues, ends and D or L forms follow the SMILES beside them. No end group written: not given here.

Key:
[1] = rats; Petersson et al. 2004
[2] = U.S. Pat. No. 4,278,595
[3] = mice, modified Dopa test; U.S. Pat. No. 3,708,593
[4] = water wheel test; Kastin et al. 1984
[5] = rats; Kastin et al. 1985
[6] = rats; Hayashi et al. 1983, 1984
[7] = rats; Pahdy et al. 2005
[8] = rats; Petersson et al. 2001

Compound | oxytocin levels [1] | metabolism subsequent to administration [2] | antidepressant activity [3] | antidepressant activity [4] | inhibition of the analgesic effect of morphine [5] | effect on passive avoidance [6] | latex-induced inflammatory hyperalgesia [7] | carrageenan induced inflammation [8]
CC(C)C[C@H](NC(=O)[C@@H]1CCCN1)C(=O)NCC(N)=O [MIF, prolyl-leucyl-glycinamide] (H-Pro-Leu-Gly-NH2) | decreases oxytocin levels | rapidly metabolized | exhibits antidepressant activity | active as antidepressants | – | – | – | –
Tyr-Pro-Leu-Gly-NH2 (YPLG-NH2) [Tyr-MIF-1, brain derived peptide] | – | – | – | active as antidepressants | active in inhibiting the analgesic effect of morphine | shown to affect passive avoidance | – | –
CC[C@H](C)[C@@H]1NC(=O)[C@H](Cc2ccc(O)cc2)NC(=O)[C@@H](N)CSSC[C@@H](C(=O)N2CCC[C@H]2C(=O)N[C@@H](CC(C)C)C(=O)NCC(N)=O)NC(=O)[C@H](CC(N)=O)NC(=O)[C@H](CCC(N)=O)NC1=O [oxytocin] | – | – | – | – | – | – | inhibit Calotropis procera latex-induced inflammatory hyperalgesia | decreases carrageenan induced inflammation
